In US20040049072A1, “RXR modulators with improved pharmacologic profile” (priority 1999, published 2004):
pKi: −log10 of the molar value. Read-outs that look alike come from different tables or passages of the source.

Legend:
RXRα = target: T1, RXRα (Homo sapiens, UniProt P19793); test: RXRα binding (competition with tritiated LGD1069)
T1 sequence (P19793 1-462): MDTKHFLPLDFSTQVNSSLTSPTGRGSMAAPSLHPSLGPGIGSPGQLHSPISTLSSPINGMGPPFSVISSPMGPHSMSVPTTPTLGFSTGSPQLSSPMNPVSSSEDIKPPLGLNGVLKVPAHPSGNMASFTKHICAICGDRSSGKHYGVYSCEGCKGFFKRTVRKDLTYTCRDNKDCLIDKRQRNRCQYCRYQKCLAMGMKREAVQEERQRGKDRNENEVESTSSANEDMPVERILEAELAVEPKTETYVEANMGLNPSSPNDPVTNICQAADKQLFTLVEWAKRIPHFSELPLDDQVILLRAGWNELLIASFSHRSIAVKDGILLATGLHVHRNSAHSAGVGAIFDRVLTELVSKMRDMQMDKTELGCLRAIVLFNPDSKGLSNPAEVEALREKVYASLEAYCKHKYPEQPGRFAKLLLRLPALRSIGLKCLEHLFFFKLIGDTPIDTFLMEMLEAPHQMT
Procedure: Non-specific binding was defined as that binding remaining in the presence of 500 nM of the appropriate unlabelled compound. At the end of the incubation period, bound ligand was separated from free. The amount of bound tritiated retinoid was determined by liquid scintillation counting of an aliquot (700 μL) of the supernatant fluid or the hydroxylapatite pellet.
After correcting for non-specific binding, IC50 values were determined. […] The IC50 value was determined graphically from a log-logit plot of the data. The Ki values were determined by application of the Cheng-Prussof equation to the IC50 values, the labeled ligand concentration and the Kd of the labeled ligand.

RXRα:RAR heterodimer = target: T2, RXRα:RAR heterodimer (Homo sapiens, UniProt P19793); test: RXR:RAR heterodimer co-transfection assay in CV-1 cells; type: cell-based
T2 construct: expressed in transfected cells; host or cells: CV-1 cells
T2 sequence (P19793 1-462): T1 sequence (P19793 1-462)
Procedure: For determination of agonist activity in the context of the RXR:RAR heterodimer or the RXR:PPARγ heterodimer, media containing compounds of the present invention in concentrations ranging from 10^−10 to 10^−5 M were added to the cells.
Compounds of the present invention were also tested for the ability to synergize with a PPARγ agonist in the context of an RXR heterodimer. […] Efficacy of the compounds of the present invention in the agonist and synergy assays was calculated as the maximum response obtained over the range of the dose response curve relative to the maximum response obtained by the reference agonist. Antagonist efficacy was determined as a function (%) of maximal inhibition.
However, when RAR is occupied, typical RXR agonists activate the heterodimer. […] To examine the effects of the compounds of the present invention on the transcriptional properties of the RXR:RAR heterodimer, a heterodimer cotransfection assay as described above was employed.

[1] = test system: mice transgenic for the human apolipoprotein A-I gene; test: transgenic mice carrying the human apo A-I gene (HDL cholesterol, triglycerides); type: in vivo, mouse
Source text: Mice transgenic for the human apolipoprotein A-I gene (obtained from Jackson Laboratory) were used to evaluate PPARalpha mediated effects on HDL cholesterol. The mice were handled as described above for db/db mice, except that they were fed Purina 5001.

[2] = Table 3, mean of n > 3, read-out: RXRα Binding Ki
[3] = from IC50 by Cheng-Prussof equation, tritiated LGD1069, read-out: Bind RXRα Ki
[4] = CV-1, read-out: RXR:RAR CV-1 (%) Ag.
[5] = CV-1, read-out: RXRα:RAR Heterodimer Cotransfection Assay Agonist Efficacy (%)
[6] = maximal repression (100%) in presence of 10 nM TTNPB
[7] = relative to maximal repression (100%) in presence of 10 nM TTNPB

| Structure (SMILES) | pKi (RXRα; [2]) | pKi (RXRα; [3]) | Emax (RXRα:RAR heterodimer; [4]) | Emax (RXRα:RAR heterodimer; [5]) | agonist activity on the RXR:RAR heterodimer (RXRα:RAR heterodimer; compound alone) | RXR:RAR CV-1 (%) Antag. (RXRα:RAR heterodimer; [6]) | RXRα:RAR Heterodimer Cotransfection Assay Antagonist Efficacy (%) (RXRα:RAR heterodimer; [7]) | triglycerides [1] | antagonist activity on the RXR:RAR heterodimer (RXRα:RAR heterodimer; antagonist assay) | RXR:RAR antagonist activity relative to L2 (RXRα:RAR heterodimer; comparison of L3 with L2) | Emax (RXRα:RAR heterodimer; CV-1; read-out: RXR:RAR CV-1 (%) Ag.) | Emax (RXRα:RAR heterodimer; CV-1; read-out: RXRα:RAR Heterodimer Cotransfection Assay Agonist Efficacy (%)) |
| --- | --- | --- | --- | --- | --- | --- | --- | --- | --- | --- | --- | --- |
| COc1c(/C(C)=C/C=C/C(C)=C/C(=O)O)cc(C(C)(C)C)cc1C(C)(C)C [Compound L1] | 8.96 | 8.96 | 21% | 21% | weak agonist activity alone | 19% | 19% | substantially raise triglycerides | – | – | – | – |
| CCOc1c(/C(C)=C/C=C/C(C)=C/C(=O)O)cc(C(C)(C)C)cc1C(C)(C)C [Compound L2] | 7.89 | 7.89 | 6% | 6% | not active in the RXR:RAR assay | 49% | 49% | – | – | – | – | – |
| CCCOc1c(/C(C)=C/C=C/C(C)=C/C(=O)O)cc(C(C)(C)C)cc1C(C)(C)C [Compound L3] | 8.96 | 9.00 | 5% | 5% | not active as RXR:RAR agonists | 84% | 84% | – | significant RXR:RAR antagonist activity | approximately twice the RXR:RAR antagonist activity as L2 | – | – |
| CCCCOc1c(/C(C)=C/C=C/C(C)=C/C(=O)O)cc(C(C)(C)C)cc1C(C)(C)C [Compound L4] | 9.05 | 9.00 | 2% | 2% | not active as RXR:RAR agonists | 88% | 88% | – | significant RXR:RAR antagonist activity | – | – | – |
| CCCCCCCOc1c(/C(C)=C/C=C/C(C)=C/C(=O)O)cc(C(C)(C)C)cc1C(C)(C)C [Compound L5] | 9.22 | 9.22 | – | – | not active as RXR:RAR agonists | 68% | 68% | – | significant RXR:RAR antagonist activity | – | 5% | 5% |
